PubChem BioAssay AID1963860 (Molecular Pharmacology Branch, DTP, NCI, 2024)

Tested on: CN0375-F725-PDC KRAS spheroid viability
Assay: Anticancer human tumor CN0375-F725-PDC patient-derived colon carcinoma cell line growth inhibition [KRAS2]
Conditions: spheroids with HUVEC and MSC; for IC50: curve of first compound; for viability, T/C: stronger effect = lower value
Outline: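 Combination screen of spheroid viability in tumor-cell co-cultures with endothelial (HUVEC) and mesenchymal stem cell stroma. Each agent was tested in half-log dilutions, topping at clinical Cmax or at 10 microM without a known Cmax.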

[1] = second compound 0.0316 µM, first compound 0.0316 µM
[2] = second compound 0.0316 µM, first compound 0.1 µM
[3] = second compound 0.0316 µM, first compound 0.316 µM
[4] = second compound 0.0316 µM, first compound 1 µM
[5] = second compound 0.0316 µM, first compound 3.16 µM
[6] = second compound 0.0316 µM, first compound 10 µM
[7] = second compound 0.1 µM, first compound 0.0316 µM
[8] = second compound 0.1 µM, first compound 0.1 µM
[9] = second compound 0.1 µM, first compound 0.316 µM
[10] = second compound 0.1 µM, first compound 1 µM
[11] = second compound 0.1 µM, first compound 3.16 µM
[12] = second compound 0.1 µM, first compound 10 µM
[13] = second compound 0.316 µM, first compound 0.0316 µM
[14] = second compound 0.316 µM, first compound 0.1 µM
[15] = second compound 0.316 µM, first compound 0.316 µM
[16] = second compound 0.316 µM, first compound 1 µM
[17] = second compound 0.316 µM, first compound 3.16 µM
[18] = second compound 0.316 µM, first compound 10 µM
[19] = second compound 1 µM, first compound 0.0316 µM
[20] = second compound 1 µM, first compound 0.1 µM
[21] = second compound 1 µM, first compound 0.316 µM
[22] = second compound 1 µM, first compound 1 µM
[23] = second compound 1 µM, first compound 3.16 µM
[24] = second compound 1 µM, first compound 10 µM
[25] = second compound 3.16 µM, first compound 0.0316 µM
[26] = second compound 3.16 µM, first compound 0.1 µM
[27] = second compound 3.16 µM, first compound 0.316 µM
[28] = second compound 3.16 µM, first compound 1 µM
[29] = second compound 3.16 µM, first compound 3.16 µM
[30] = second compound 3.16 µM, first compound 10 µM
[31] = second compound 0.0316 µM, first compound 0.00316 µM
[32] = second compound 0.0316 µM, first compound 0.01 µM
[33] = second compound 0.1 µM, first compound 0.00316 µM
[34] = second compound 0.1 µM, first compound 0.01 µM
[35] = second compound 0.316 µM, first compound 0.00316 µM
[36] = second compound 0.316 µM, first compound 0.01 µM
[37] = second compound 1 µM, first compound 0.00316 µM
[38] = second compound 1 µM, first compound 0.01 µM
[39] = second compound 3.16 µM, first compound 0.00316 µM
[40] = second compound 3.16 µM, first compound 0.01 µM
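Further: spheroids exposed to agents for 7 days.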

CC(C)NCC(C(=O)N1CCN(c2ncnc3c2C(C)CC3O)CC1)c1ccc(Cl)cc1 (stereo not given) + C=CC(=O)N1CCN(c2nc(OCC3CCCN3C)nc3c2CCN(c2cccc4cccc(C)c24)C3)CC1CC#N
IC50 (second compound 0.0316 µM): > 10 µM
IC50 (second compound 0.1 µM): > 10 µM
IC50 (second compound 0.316 µM): > 10 µM
IC50 (second compound 1 µM): > 10 µM
IC50 (second compound 3.16 µM): < 0.0316 µM
viability, T/C [1]: 106%
viability, T/C [2]: 105%
viability, T/C [3]: 101%
viability, T/C [4]: 93%
viability, T/C [5]: 94.2%
viability, T/C [6]: 83.2%
viability, T/C [7]: 106%
viability, T/C [8]: 103%
viability, T/C [9]: 98%
viability, T/C [10]: 91.7%
viability, T/C [11]: 91.4%
viability, T/C [12]: 78.2%
viability, T/C [13]: 101%
viability, T/C [14]: 108%
viability, T/C [15]: 94.6%
viability, T/C [16]: 87.8%
viability, T/C [17]: 85.3%
viability, T/C [18]: 71.4%
viability, T/C [19]: 103%
viability, T/C [20]: 102%
viability, T/C [21]: 92.5%
viability, T/C [22]: 76.8%
viability, T/C [23]: 70.9%
viability, T/C [24]: 58.2%
viability, T/C [25]: 19.5%
viability, T/C [26]: 14.7%
viability, T/C [27]: 13.5%
viability, T/C [28]: 4.72%
viability, T/C [29]: 3.97%
viability, T/C [30]: 1.46%

CC1(C)CCC(CN2CCN(c3ccc(C(=O)NS(=O)(=O)c4ccc(NCC5CCOCC5)c([N+](=O)[O-])c4)c(Oc4cnc5[nH]ccc5c4)c3)CC2)=C(c2ccc(Cl)cc2)C1 + C=CC(=O)N1CCN(c2nc(OCC3CCCN3C)nc3c2CCN(c2cccc4cccc(C)c24)C3)CC1CC#N
IC50 (second compound 0.0316 µM): 3.98 µM
IC50 (second compound 0.1 µM): 4.63 µM
IC50 (second compound 0.316 µM): 2.67 µM
IC50 (second compound 1 µM): 2.01 µM
IC50 (second compound 3.16 µM): < 0.0316 µM
viability, T/C [1]: 108%
viability, T/C [2]: 102%
viability, T/C [3]: 101%
viability, T/C [4]: 107%
viability, T/C [5]: 58.5%
viability, T/C [6]: 15.9%
viability, T/C [7]: 104%
viability, T/C [8]: 104%
viability, T/C [9]: 102%
viability, T/C [10]: 99%
viability, T/C [11]: 66.3%
viability, T/C [12]: 17%
viability, T/C [13]: 101%
viability, T/C [14]: 108%
viability, T/C [15]: 101%
viability, T/C [16]: 96.6%
viability, T/C [17]: 42%
viability, T/C [18]: 14.3%
viability, T/C [19]: 96.6%
viability, T/C [20]: 97.2%
viability, T/C [21]: 100%
viability, T/C [22]: 86.3%
viability, T/C [23]: 26.2%
viability, T/C [24]: 5.23%
viability, T/C [25]: 11%
viability, T/C [26]: 12%
viability, T/C [27]: 3.38%
viability, T/C [28]: 3.27%
viability, T/C [29]: 0.38%
viability, T/C [30]: 0.17%

CCN1CCN(Cc2ccc(Nc3ncc(F)c(-c4cc(F)c5nc(C)n(C(C)C)c5c4)n3)nc2)CC1 + C=CC(=O)N1CCN(c2nc(OCC3CCCN3C)nc3c2CCN(c2cccc4cccc(C)c24)C3)CC1CC#N
IC50 (second compound 0.0316 µM): > 1 µM
IC50 (second compound 0.1 µM): > 1 µM
IC50 (second compound 0.316 µM): > 1 µM
IC50 (second compound 1 µM): > 1 µM
IC50 (second compound 3.16 µM): < 0.00316 µM
viability, T/C [31]: 110%
viability, T/C [32]: 94.4%
viability, T/C [1]: 90.5%
viability, T/C [2]: 91.8%
viability, T/C [3]: 111%
viability, T/C [4]: 99.8%
viability, T/C [33]: 103%
viability, T/C [34]: 96.8%
viability, T/C [7]: 88.1%
viability, T/C [8]: 94.6%
viability, T/C [9]: 104%
viability, T/C [10]: 91.2%
viability, T/C [35]: 104%
viability, T/C [36]: 99.7%
viability, T/C [13]: 85.5%
viability, T/C [14]: 89.4%
viability, T/C [15]: 95.2%
viability, T/C [16]: 91.5%
viability, T/C [37]: 95.4%
viability, T/C [38]: 99.6%
viability, T/C [19]: 86.9%
viability, T/C [20]: 83.9%
viability, T/C [21]: 85.1%
viability, T/C [22]: 89.8%
viability, T/C [39]: 34.7%
viability, T/C [40]: 31.3%
viability, T/C [25]: 17.9%
viability, T/C [26]: 15.3%
viability, T/C [27]: 20.3%
viability, T/C [28]: 1.83%

CCNC(=O)CC1N=C(c2ccc(Cl)cc2)c2cc(OC)ccc2-n2c(C)nnc21 (stereo not given) + C=CC(=O)N1CCN(c2nc(OCC3CCCN3C)nc3c2CCN(c2cccc4cccc(C)c24)C3)CC1CC#N
IC50 (second compound 0.0316 µM): > 10 µM
IC50 (second compound 0.1 µM): > 10 µM
IC50 (second compound 0.316 µM): > 10 µM
IC50 (second compound 1 µM): 6.11 µM
IC50 (second compound 3.16 µM): < 0.0316 µM
viability, T/C [1]: 97.8%
viability, T/C [2]: 96.6%
viability, T/C [3]: 83.2%
viability, T/C [4]: 83%
viability, T/C [5]: 69.3%
viability, T/C [6]: 54%
viability, T/C [7]: 101%
viability, T/C [8]: 92.8%
viability, T/C [9]: 81.4%
viability, T/C [10]: 78.6%
viability, T/C [11]: 67.2%
viability, T/C [12]: 53.2%
viability, T/C [13]: 97.1%
viability, T/C [14]: 88.6%
viability, T/C [15]: 77.8%
viability, T/C [16]: 75.1%
viability, T/C [17]: 68.4%
viability, T/C [18]: 53.8%
viability, T/C [19]: 88.1%
viability, T/C [20]: 85.6%
viability, T/C [21]: 73.3%
viability, T/C [22]: 65.6%
viability, T/C [23]: 60.1%
viability, T/C [24]: 43.4%
viability, T/C [25]: 30.2%
viability, T/C [26]: 28%
viability, T/C [27]: 15.5%
viability, T/C [28]: 1.05%
viability, T/C [29]: 13.8%
viability, T/C [30]: 6.65%

Cn1ncnc1[C@H]1c2n[nH]c(=O)c3cc(F)cc(c23)N[C@@H]1c1ccc(F)cc1 + C=CC(=O)N1CCN(c2nc(OCC3CCCN3C)nc3c2CCN(c2cccc4cccc(C)c24)C3)CC1CC#N
IC50 (second compound 0.0316 µM): > 0.1 µM
IC50 (second compound 0.1 µM): > 0.1 µM
IC50 (second compound 0.316 µM): > 0.1 µM
IC50 (second compound 1 µM): > 0.1 µM
IC50 (second compound 3.16 µM): < 0.000316 µM
viability, T/C (second compound 0.0316 µM, first compound 0.000316 µM): 99.6%
viability, T/C (second compound 0.0316 µM, first compound 0.001 µM): 105%
viability, T/C [31]: 99.2%
viability, T/C [32]: 103%
viability, T/C [1]: 97.6%
viability, T/C [2]: 99.6%
viability, T/C (second compound 0.1 µM, first compound 0.000316 µM): 106%
viability, T/C (second compound 0.1 µM, first compound 0.001 µM): 105%
viability, T/C [33]: 96.9%
viability, T/C [34]: 94.3%
viability, T/C [7]: 100%
viability, T/C [8]: 91.8%
viability, T/C (second compound 0.316 µM, first compound 0.000316 µM): 95.9%
viability, T/C (second compound 0.316 µM, first compound 0.001 µM): 107%
viability, T/C [35]: 100%
viability, T/C [36]: 95.9%
viability, T/C [13]: 101%
viability, T/C [14]: 87%
viability, T/C (second compound 1 µM, first compound 0.000316 µM): 97.6%
viability, T/C (second compound 1 µM, first compound 0.001 µM): 99%
viability, T/C [37]: 93.7%
viability, T/C [38]: 87.7%
viability, T/C [19]: 90.9%
viability, T/C [20]: 86.2%
viability, T/C (second compound 3.16 µM, first compound 0.000316 µM): 14.6%
viability, T/C (second compound 3.16 µM, first compound 0.001 µM): 13.1%
viability, T/C [39]: 20.2%
viability, T/C [40]: 16.1%
viability, T/C [25]: 14.4%
viability, T/C [26]: 14.3%
